In EP0382636A1, “Pyrimidine derivatives, 2-[4-(alpha-heteroaryl-alpha-aryl-(alpha-alkyl)-methoxy)-butyl)-1-piperazinyl], with a serotoninergical activity” (LABORATORIOS DEL DR. ESTEVE, S.A., priority 1989, dated 1990):

Biological target: T1, récepteurs 5-HT 1A (Homo sapiens, UniProt P08908)
T1 sequence (P08908 1-422): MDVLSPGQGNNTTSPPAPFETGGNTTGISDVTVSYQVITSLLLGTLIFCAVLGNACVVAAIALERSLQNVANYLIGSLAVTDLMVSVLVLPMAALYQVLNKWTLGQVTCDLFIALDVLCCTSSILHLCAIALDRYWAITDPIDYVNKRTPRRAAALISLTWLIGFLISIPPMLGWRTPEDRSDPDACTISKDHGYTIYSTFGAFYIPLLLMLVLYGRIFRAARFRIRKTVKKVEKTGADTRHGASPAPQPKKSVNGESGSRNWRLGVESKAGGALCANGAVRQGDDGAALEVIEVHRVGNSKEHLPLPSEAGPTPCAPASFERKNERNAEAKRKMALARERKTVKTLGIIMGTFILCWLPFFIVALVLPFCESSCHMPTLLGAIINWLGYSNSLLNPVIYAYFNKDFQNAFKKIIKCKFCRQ
Test: 5-HT 1A receptor binding (radioligand displacement)
Details: specific binding to 5-HT 1A receptors; test concentration not given; method cited from M. Hapon, Brain Receptor Methodologies
Text: L'activité de certains composés sur le système nerveux central a été étudiée et plus précisément leur activité sérotoninergique, par leur union spécifique aux récepteurs 5-HT 1A. TABLEAU II

| Structure (SMILES) | Binding 5-HT-1A déplacement (%) |
| --- | --- |
| O=C1c2ccccc2S(=O)(=O)N1CCCCN1CCN(c2ncccn2)CC1 [Ipsapirone, reference compound] | 99,6% |
| O=C1CC2(CCCC2)CC(=O)N1CCCCN1CCN(c2ncccn2)CC1 [Buspirone, reference compound] | 99,1% |
| Cn1nccc1C(C)(OCCCCN1CCN(c2ncccn2)CC1)c1ccc(Cl)cc1 (centres unmarked) [Exemple 9] | 95,0% |
| Cn1ccnc1C(C)(OCCCCN1CCN(c2ncccn2)CC1)c1ccc(Cl)cc1 (centres unmarked) [Exemple 2] | 98,6% |
| Cn1nccc1C(OCCCCN1CCN(c2ncccn2)CC1)c1ccc(Cl)cc1 (centres unmarked) [Exemple 8] | 95,0% |
| Cn1ccnc1C(C)(OCCCCN1CCN(c2ncccn2)CC1)c1cccc(C(F)(F)F)c1 (centres unmarked) [Exemple 4] | 98,1% |
| Cn1ccnc1C(OCCCCN1CCN(c2ncccn2)CC1)c1ccc(Cl)cc1 (centres unmarked) [Exemple 1] | 94,7% |

Other lines, results leading:

| Binding 5-HT-1A déplacement (%) | Structure (SMILES) |
| --- | --- |
| 94,6% | CCCCn1ccnc1C(OCCCCN1CCN(c2ncccn2)CC1)c1cccc(C(F)(F)F)c1 (centres unmarked) [Exemple 6] |
| 91,5% | CCCCn1ccnc1C(OCCCCN1CCN(c2ncccn2)CC1)c1ccc(Cl)cc1 (centres unmarked) [Exemple 5] |
| 97,6% | CCCCn1ccnc1C(C)(OCCCCN1CCN(c2ncccn2)CC1)c1cccc(C(F)(F)F)c1 (centres unmarked) [Exemple 3] |
| 98,3% | Cn1ccnc1C(OCCCCN1CCN(c2ncccn2)CC1)c1cccc(C(F)(F)F)c1 (centres unmarked) [Exemple 7] |
